# Earlier results, collected in patent publication US20070088012A1, “Method of treating or preventing type-2 diabetes” (priority 2005, published 2007).
smiles,measurement,setting,value
"C[C@]12CC[C@H]3[C@@H](CCC4=CC(=O)CC[C@@]43C)[C@@H]1CC[C@@H]2O [Testosterone, testosterone]",bound to protein in the blood,circulating testosterone,98%
same,share bound weakly to albumin,in men,60%
same,share of the binding to sex hormone binding globulin (SHBG),in men,approximately 40%
same,Metabolic Clearance Rate of Daily Testosterone,men,^aMetabolic Clearance Rate of Daily Testosterone = 600 L/day
same,half-life of testosterone,reported in the literature,10 to 100 min
